Reference: patent US7897765B2, “Therapeutic compounds and uses thereof” (Elixir Pharmaceuticals, Inc., priority 2003, dated 2011)

Biological target: GHS-R (Homo sapiens, UniProt Q92847)
Test: cell based assay of GHS-R antagonist/agonist activity
Design: key: A refers to a compound having antagonist activity with Ki<100 nM in a cell based assay; B refers to a compound having agonist activity with EC50<100 nM in a cell based assay; C refers to a compound having antagonist activity of Ki>100 nM and <1500 nM in a cell based assay; D refers to a compound having antagonist activity with Ki, <100 nM and agonist activity with EC50<100 nM in a cell-based assay; E refers to other exemplary compounds
Details: GHS-R antagonist Ki and/or agonist EC50 class
Experimental: Cell-Based Activity Assays. For example, the ability of the compound to modulate accumulation of a second messenger signaling component downstream of GHS-R can be evaluated. For example, inositol phosphates (IP), as a result of Gq signaling in a mammalian cell, e.g., a Cos-7 cells. Other tissue culture cells, Xenopus oocytes, and primary cells can also be used.
Phosphatidylinositol turnover assay. One day after transfection COS-7 cells are incubated for 24 hours with 5 μCi of [^3H]-myo-inositol in 1 ml medium supplemented with 10% fetal calf serum, 2 mM glutamine and 0.01 mg/ml gentamicin per well. Cells are then washed twice in buffer, 20 mM HEPES, pH 7.4, supplemented with 140 mM NaCl, 5 mM KCl, 1 mM MgSO4, 1 mM CaCl2, mM glucose, 0.05% (w/v) bovine serum; and incubated in 0.5 ml buffer supplemented with 10 mM LiCl at 37° C. for 30 min. For some assays, it is also useful to incubate the cells with adenosine deaminase ADA (200 U/mg, Boehringer Mannheim, Germany) for 30 min in a concentration of 1 U/ml.
After incubation with the compound of interest for 45 min at 37° C., cells are extracted with 10% ice-cold perchloric acid and placed on ice for 30 min. The resulting supernatants are neutralized with KOH in HEPES buffer, and [^3H]-inositol phosphate is purified on Bio-Rad AG 1-X8 anion exchange resin as described. Assays can be run in duplicate, triplicate, etc.
Other second messenger assays. Another second messenger that can be evaluated is Ca^2+. Ca^2+ mobilization can be evaluated using a calcium sensitive detector, such as aequorin protein or a dye, e.g., FURA-2. In an exemplary assay, calcium mobilization is evaluated in a recombinant cell that expresses GHS-R and aequorin.
Gene expression assay. HEK293 cells (30 000 cells/well) seeded in 96-well plates are transiently transfected with a mixture of pFA2-CREB and pFR-Luc reporter plasmid (PathDetect™ CREB trans-Reporting System, Stratagene) and nucleic acid encoding GHS. One day after transfection, cells are treated with the compound of interest in an assay volume of 100 μl medium for 5 hrs. After treatment, cells are cultured in low serum (2.5%). After the incubation period, the assay is ended by washing the cells twice with PBS and adding 100 μl luciferase assay reagent (LucLite™, Packard Bioscience). Luminescence is measured (e.g., as relative light units (RLU)) using in a luminometer such as the TopCounter™ (Packard Bioscience) for 5 sec.
IC50 and EC50 values can be determined by nonlinear regression, e.g., using the Prism 3.0 software (GraphPad Software, San Diego).

Sequence of GHS-R (Q92847 whole entry, species assumed): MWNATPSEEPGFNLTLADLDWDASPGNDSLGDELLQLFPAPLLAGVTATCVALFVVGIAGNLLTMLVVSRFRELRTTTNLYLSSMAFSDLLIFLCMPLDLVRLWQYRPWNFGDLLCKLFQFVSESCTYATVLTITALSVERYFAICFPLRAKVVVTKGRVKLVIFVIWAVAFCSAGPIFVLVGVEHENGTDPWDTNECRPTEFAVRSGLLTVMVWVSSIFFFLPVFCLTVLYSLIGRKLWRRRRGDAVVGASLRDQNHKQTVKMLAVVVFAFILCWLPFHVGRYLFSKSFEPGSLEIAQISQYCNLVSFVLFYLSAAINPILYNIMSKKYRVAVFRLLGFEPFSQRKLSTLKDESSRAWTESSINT

SMILES	Activity
CN(C)Cc1cccc(C(=O)N[C@H](COCc2ccccc2)C(=O)N2CCC3(CC2)CN(S(C)(=O)=O)c2ccccc23)c1 [Compound 6]	A (A refers to a compound having antagonist activity with Ki<100 nM in a cell based assay)
CN(C)C(C)(C)C(=O)N[C@H](COCc1ccccc1)C(=O)N1CCC2(CC1)CN(S(C)(=O)=O)c1ccccc12 [Compound 131]	B (B refers to a compound having agonist activity with EC50<100 nM in a cell based assay)
CN1CCCC[C@@H]1C(=O)N[C@H](COCc1ccccc1)C(=O)N1CCC2(CC1)CN(S(C)(=O)=O)c1ccccc12.Cl [Compound 133]	B (B refers to a compound having agonist activity with EC50<100 nM in a cell based assay)
C[C@H](N)C(=O)N[C@H](COCc1ccccc1)C(=O)N1CCC2(CC1)CN(S(C)(=O)=O)c1ccccc12 [Compound 78]	E
CN1CCC(C(=O)N[C@H](CC(=O)N2CCC3(CC2)CN(S(C)(=O)=O)c2ccccc23)Cc2c[nH]c3ccccc23)CC1 [Compound 141]	E
CC(C)(C)OC(=O)N[C@H](COCc1ccccc1)C(=O)N1CCC2(CC1)CN(C(=O)CO)c1ccccc12 [Compound 61]	E
CN(C)CC(=O)N[C@H](COCc1ccccc1)C(=O)N1CCC2(CC1)CN(C(=O)CO)c1ccccc12 [Compound 75]	E
CS(=O)(=O)N1CC2(CCN(C(=O)[C@@H](COCc3ccccc3)NC(=O)Cn3ccnc3)CC2)c2ccccc21 [Compound 55]	E
CS(=O)(=O)N1CC2(CCN(C(=O)[C@@H](COCc3ccccc3)NC(=O)CN3CCC3)CC2)c2ccccc21 [Compound 39]	C (C refers to a compound having antagonist activity of Ki>100 nM and <1500 nM in a cell based assay)
CN1CCC(C(=O)N[C@H](COCc2ccccc2)C(=O)N2CCC3(C=Cc4ccccc43)CC2)CC1 [Compound 3]	A (A refers to a compound having antagonist activity with Ki<100 nM in a cell based assay)
CN(C)CC(=O)N[C@@H](Cc1ccccc1)C(=O)N1CCC2(CC1)CN(S(C)(=O)=O)c1ccccc12 [Compound 124]	E
CN(C)CC(=O)N[C@H](COCc1ccccc1)C(=O)N1CCC2(CC1)CN(S(=O)(=O)CC(F)(F)F)c1ccccc12 [Compound 47]	C (C refers to a compound having antagonist activity of Ki>100 nM and <1500 nM in a cell based assay)
CCN1CCC[C@@H]1CNC(=O)N[C@H](COCc1ccccc1)C(=O)N1CCC2(CC1)CN(S(C)(=O)=O)c1ccccc12 [Compound 96]	E
CC(C)N1CC=C(C(=O)N[C@H](COCc2ccccc2)C(=O)N2CCC3(CC2)CN(S(C)(=O)=O)c2ccccc23)CC1.Cl [Compound 49]	C (C refers to a compound having antagonist activity of Ki>100 nM and <1500 nM in a cell based assay)
CS(=O)(=O)N1CC2(CCN(C(=O)[C@@H](COCc3ccccc3)NC(=O)C3CCCNC3)CC2)c2ccccc21 (stereo partly shown) [Compound 4]	D (D refers to a compound having antagonist activity with Ki, <100 nM and agonist activity with EC50<100 nM in a cell-based assay)
CN1CCC(C(=O)N[C@H](Cc2c[nH]c3ccccc23)C(=O)N2CCC3(CC2)CN(S(C)(=O)=O)c2ccccc23)CC1 [Compound 135]	E
CN(C)CC(=O)N[C@H](COCc1ccccc1)C(=O)N1CCC2(CC1)CNc1ccccc12 [Compound 68]	E
CS(=O)(=O)N1CC2(CCN(C(=O)[C@@H](COCc3ccccc3)NC(=O)CO)CC2)c2ccccc21 [Compound 54]	E
CC(=O)NC(C)(C)C(=O)N[C@H](COCc1ccccc1)C(=O)N1CCC2(CC1)CN(S(C)(=O)=O)c1ccccc12 [Compound 126]	B (B refers to a compound having agonist activity with EC50<100 nM in a cell based assay)

SMILES	Activity
CN1CCC[C@H]1C(=O)N[C@H](COCc1ccccc1)C(=O)N1CCC2(CC1)CN(S(C)(=O)=O)c1ccccc12 [Compound 24]	C (C refers to a compound having antagonist activity of Ki>100 nM and <1500 nM in a cell based assay)
CCN(CC)CCCS(=O)(=O)N[C@H](CCc1ccccc1)C(=O)N1CCC2(CC1)CN(S(C)(=O)=O)c1ccccc12 [Compound 163]	A (A refers to a compound having antagonist activity with Ki<100 nM in a cell based assay)
CC1=NCCC(C(=O)N[C@H](COCc2ccccc2)C(=O)N2CCC3(CC2)CN(S(C)(=O)=O)c2ccccc23)N1 (stereo partly shown) [Compound 112]	E
CS(=O)(=O)N1CC2(CCN(C(=O)[C@@H](COCc3ccccc3)NC(=O)C3CNC3)CC2)c2ccccc21 [Compound 36]	C (C refers to a compound having antagonist activity of Ki>100 nM and <1500 nM in a cell based assay)
CS(=O)(=O)N1CC2(CCN(C(=O)[C@@H](COCc3ccccc3)NC(=O)NCCN3CCOCC3)CC2)c2ccccc21 [Compound 92]	E
CS(=O)(=O)N1CC2(CCN(C(=O)[C@@H](COCc3ccccc3)NS(=O)(=O)CCCCl)CC2)c2ccccc21 [Compound 153]	A (A refers to a compound having antagonist activity with Ki<100 nM in a cell based assay)
CS(=O)(=O)N1CC2(CCN(C(=O)[C@@H](COCc3ccccc3)NC(=O)c3cccc(CN)c3)CC2)c2ccccc21 [Compound 122]	E
CCN(CC)CCCS(=O)(=O)N(C)[C@H](COCc1ccccc1)C(=O)N1CCC2(CC1)CN(S(C)(=O)=O)c1ccccc12 [Compound 162]	A (A refers to a compound having antagonist activity with Ki<100 nM in a cell based assay)
CCN(CC)CC(=O)N[C@H](COCc1ccccc1)C(=O)N1CCC2(CC1)CN(S(C)(=O)=O)c1ccccc12 [Compound 90]	E
CC(C)(C)NCCCS(=O)(=O)N[C@H](COCc1ccccc1)C(=O)N1CCC2(CC1)CN(S(C)(=O)=O)c1ccccc12 [Compound 150]	A (A refers to a compound having antagonist activity with Ki<100 nM in a cell based assay)
CN(C)CCS(=O)(=O)N[C@H](COCc1ccccc1)C(=O)N1CCC2(CC1)CN(S(C)(=O)=O)c1ccccc12 [Compound 83]	E
CN1CCC[C@@H]1C(=O)N[C@H](COCc1ccccc1)C(=O)N1CCC2(CC1)CN(S(C)(=O)=O)c1ccccc12 [Compound 32]	C (C refers to a compound having antagonist activity of Ki>100 nM and <1500 nM in a cell based assay)
CN1CCC(C(=O)N[C@@H](Cc2ccccc2)C(=O)N2CCC3(CC2)CN(S(C)(=O)=O)c2ccccc23)CC1 [Compound 42]	C (C refers to a compound having antagonist activity of Ki>100 nM and <1500 nM in a cell based assay)
CS(=O)(=O)N1CC2(CCN(C(=O)[C@@H](COCc3ccccc3)NC(=S)NCc3ccco3)CC2)c2ccccc21 [Compound 87]	E
CCN1CC=C(C(=O)N[C@H](COCc2ccccc2)C(=O)N2CCC3(CC2)CN(S(C)(=O)=O)c2ccccc23)CC1 [Compound 100]	E
CS(=O)(=O)N1CC2(CCN(C(=O)[C@@H](COCc3ccccc3)NC(=O)[C@@H]3CCC[C@H](CN)C3)CC2)c2ccccc21 [Compound 114]	E
CS(=O)(=O)N1CC2(CCN(C(=O)[C@@H](COCc3ccccc3)NS(=O)(=O)CCN3CCC3)CC2)c2ccccc21 [Compound 105]	E
CS(=O)(=O)N1CC2(CCN(C(=O)[C@@H](COCc3ccccc3)NC(=O)NCCO)CC2)c2ccccc21 [Compound 41]	C (C refers to a compound having antagonist activity of Ki>100 nM and <1500 nM in a cell based assay)
